Patent publication US20220202818A1, “COMBINATION WITH CHECKPOINT INHIBITORS TO TREAT CANCER” (The Regents of the University of Michigan, priority 2019, published 2022)

Experiments:
[1] = system: KPC pancreatic tumors; assay: In vivo efficacy of MOL-211 alone and with PD-1 antibody in mice bearing KPC pancreatic tumors
Method: In vivo studies were conducted to evaluate the efficacy of MOL-211 alone and in combination with PD-1 antibody in mice bearing KPC pancreatic tumors (FIG. 1A-FIG. 1E). Mice were treated daily with MOL-211 (50 mg/kg) administered by oral gavage; anti-PD-1 antibody was administered twice a week via IP injection. Mice were analyzed subsequent to tumor implantation for over 90 days using a vehicle control; MOL-211 at 50 mg/kg; anti-PD-1 antibody at 10 mg/kg; and a combination of MOL-211 and anti-PD-1.
A partial responder (PR) is defined as a tumor that regressed to 50% of the baseline tumor volume. A complete responder (CR) is defined as a tumor below the limits of palpation (40 mg). The ΔT/ΔC ratio is the ratio of tumor volume change (treated/control) from first day of treatment to last day of treatment. Median ILS represents median increase in lifespan.

[2] = system: SCC7 head and neck tumors; assay: In vivo study in C3H mice bearing SCC7 head and neck tumors
Method: (§1) Female 6- to 7-week old C3H mice or BALB/c mice were implanted subcutaneously with 1×10^6 cultured SCC7 cells or CT-26 (murine colorectal carcinoma) cells into the region of the right axilla. Female 6- to 7-week old BALB/c mice were implanted with 2×10^6 cultured EMT-6 (murine mammary carcinoma) cells subcutaneously into the mammary fat pad. Mice were randomized into treatment groups and treatments initiated when tumors reached 60 to 100 mg. MOL-211 was administered daily by oral gavage at a dose of 50 mg/kg for the duration of the study and was prepared as a 5 mg/mL solution in 1:2 PG:1% Tween80/Na3PO4, based upon individual animal body weight (0.2 mL/20 g). PD-1 antibody was purchased from BioXcell (Lebanon, N.H.) and administered intraperitoneally (IP) at a dose of 10 mg/kg every third day. Subcutaneous tumor volume and body weights were measured three times a week. Tumor volumes were calculated by measuring two perpendicular diameters with calipers and using the formula: tumor volume=(length×width^2)/2. Individual animals were dosed until progression, defined as the time at which tumor burden reached 1000 mg. […] Animal body weight was monitored three times weekly (FIG. 4D, FIG. 5D, FIG. 6C).

[3] = system: CT-26 (murine colorectal carcinoma) tumors; assay: In vivo study in BALB/c mice bearing CT-26 (murine colorectal carcinoma) tumors; settings: FIG. 5A
Method: as §1

[4] = system: EMT-6 (murine mammary carcinoma) tumors; assay: In vivo study in female BALB/c mice bearing EMT-6 (murine mammary carcinoma) tumors; settings: EMT-6 tumor-bearing mice; FIG. 6B
Method: as §1

[5] = system: PD-L1; assay: Western blot of PD-L1 protein in KPC-2 cells treated in vitro; type: cell-based; settings: KPC-2 cells in culture; 10 micromolar; 24 and 48 hours; compared to DMSO
Method: KPC-2 cells were also grown in culture and treated for either 24 or 48 hours with DMSO or MOL-211 at a final concentration of 10 micromolar. Cells were harvested and manually homogenized in lysis buffer [25 mmol/L Tris-HCl (pH7.6), 150 mmol/L NaCl, 1% Nonidet P-40, 10% glycerol, 1 mmol/L dithiothreitol, and protease and phosphatase inhibitors], rocked for 30 minutes at 4° C., and centrifuged at 14,000 rpm for 20 min at 4° C. Protein concentration was determined by BioRad Protein Assays and lysates were subsequently subjected to SDS gel electrophoresis. Proteins were transferred to polyvinylidene fluoride membranes and probed with a primary antibody recognizing PD-L1 (Abcam, Cambridge, UK) and beta-actin. After incubation with anti-rabbit HRP-linked secondary antibody (Jackson ImmunoResearch Laboratories, West Grove, Pa.), proteins were detected using chemiluminescence (GE Healthcare, Chicago, Ill.).

## CS(=O)(=O)Nc1cc(-c2ccc3ncnc(Nc4ccc(F)c(Cl)c4)c3c2)cnc1Cl [MOL-211, N-(2-chloro-5-(4-((3-chloro-4-fluorophenyl)amino)quinazolin-6-yl)pyridin-3-yl)methanesulfonamide]
[1]
  Median ILS (median increase in lifespan): 82%
[1]; ratio of tumor volume change (treated/control) from first to last day of treatment, MOL-211 50 mg/kg daily oral gavage, PD-1 antibody 10 mg/kg/kg IP
  ΔT/ΔC (Day 19): 21%
[1]; tumor below the limits of palpation (40 mg)
  CRs (complete responders): 0%
[1]; tumor regressed to 50% of baseline tumor volume
  PRs (partial responders): 0
[2]; C3H mice bearing SCC7 tumors, MOL-211 50 mg/kg, PD-1 antibody 10 mg/kg, FIG. 4A
  calculated increase in lifespan (ILS): 206%
[2]; mice bearing SCC7 tumors, compared with PD-1 antibody monotherapy, FIG. 4B
  reduction in mean tumor volumes: superior to PD-1 antibody monotherapy
[3]; BALB/c mice bearing CT-26 tumors, MOL-211 50 mg/kg, PD-1 antibody 10 mg/kg
  calculated increase in lifespan (ILS): 22%
[3]; mice bearing CT-26 tumors
  increase in survival: Neither single agent nor combination treatment with MOL-211 and PD-1 antibody resulted in a therapeutically meaningful increase in survival
[4]
  reduction in tumor volume compared to vehicle control: did not result in a statistically significant reduction in tumor volume
[5]
  PD-L1 protein levels (western blot): reduced PD-L1 protein levels
